# Results taken from PMC7532004, “Site-specific effects of neurosteroids on GABAA receptor activation and desensitization” (eLife, 2020).
# Biological target: T1, α1β3 GABAAR (α1His-FLAGβ3) (Homo sapiens, UniProt P14867+P28472)
# T1 construct: inserted between the fourth and fifth residues of the mature peptide; photolabeling full-length heteropentameric GABAARs in native membranes; expressed in transfected cells
# T1 sequence (P14867 28-456): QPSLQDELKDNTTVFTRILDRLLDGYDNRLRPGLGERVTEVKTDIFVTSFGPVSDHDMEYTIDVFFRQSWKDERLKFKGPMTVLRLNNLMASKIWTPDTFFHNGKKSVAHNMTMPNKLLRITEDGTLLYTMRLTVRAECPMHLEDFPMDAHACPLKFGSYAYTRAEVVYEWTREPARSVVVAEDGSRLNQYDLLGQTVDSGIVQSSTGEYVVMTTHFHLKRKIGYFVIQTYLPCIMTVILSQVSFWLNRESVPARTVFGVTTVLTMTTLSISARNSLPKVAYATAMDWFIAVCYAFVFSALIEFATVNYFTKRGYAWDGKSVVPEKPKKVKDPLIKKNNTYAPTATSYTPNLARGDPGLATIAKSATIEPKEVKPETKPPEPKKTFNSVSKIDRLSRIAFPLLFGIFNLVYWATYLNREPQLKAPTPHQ
# T1 sequence (P28472 26-473): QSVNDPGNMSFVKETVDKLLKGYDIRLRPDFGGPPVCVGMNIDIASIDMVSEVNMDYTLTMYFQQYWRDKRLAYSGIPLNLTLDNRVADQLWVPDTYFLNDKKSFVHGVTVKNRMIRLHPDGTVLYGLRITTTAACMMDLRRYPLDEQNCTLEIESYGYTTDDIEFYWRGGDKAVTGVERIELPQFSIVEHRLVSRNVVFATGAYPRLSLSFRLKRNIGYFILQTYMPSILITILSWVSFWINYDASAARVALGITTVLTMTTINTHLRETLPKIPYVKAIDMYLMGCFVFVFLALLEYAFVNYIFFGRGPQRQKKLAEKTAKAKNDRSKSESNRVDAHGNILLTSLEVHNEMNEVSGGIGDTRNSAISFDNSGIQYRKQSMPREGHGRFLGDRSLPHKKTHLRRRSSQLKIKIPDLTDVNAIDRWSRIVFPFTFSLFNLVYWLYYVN
# Test: Neurosteroid photolabeling and competition, middle-down mass spectrometry
# Format: binding
# Details: for Prevention of KK200 photolabeling of α1N408 in the α1 intrasubunit site / Prevention of KK200 photolabeling of β3G308 in the intersubunit site: 3 μM KK200; for Photolabeling efficiency of α1 subunit TM4 (Y415, α1 intrasubunit site) / Photolabeling efficiency of β3 subunit TM4 peptide (β3 intrasubunit site): 30 μM photolabeling reagent
# Protocol: The syntheses of neurosteroid photolabeling reagents (KK148, KK150, KK200, KK123) are detailed in previous reports ([Jiang et al., 2016]; [Cheng et al., 2018]). […] For the photolabeling competition experiments, 3 μM KK200 or KK123 in the presence of 30 μM competitor (3α5αP, KK148, KK150, and 3β5αP) or the same volume of ethanol was added to the membrane proteins and incubated on ice for 1 hr. The samples were then irradiated in a quartz cuvette for 5 min, by using a photoreactor emitting light at >320 nm. The membrane proteins were then collected by centrifugation at 20,000 g at 4°C for 45 min. The photolabeled membrane proteins were resuspended in lysis buffer containing 1% n-dodecyl-β-D-maltoside (DDM), 0.25% cholesteryl hemisuccinate (CHS), 50 mM Tris (pH 7.5), 150 mM NaCl, 2 mM CaCl2, 5 mM KCl, 5 mM MgCl2, 1 mM EDTA, 10% glycerol at a final concentration of 1 mg/ml. The membrane protein suspension was homogenized using a glass mortar and a Teflon pestle and incubated at 4°C overnight. The protein lysate was centrifuged at 20,000 g at 4°C for 45 min and supernatant was incubated with 0.5 ml anti-FLAG agarose (Sigma) at 4°C for 2 hr. The anti-FLAG agarose was then transferred to an empty column, followed by washing with 20 ml washing buffer (50 mM triethylammonium bicarbonate and 0.05% DDM). The GABAARs were eluted with aliquots of 200 μg/ml FLAG tag peptide and 100 μg/ml 3X FLAG (ApexBio) in the washing buffer. The pooled eluates (9 ml) containing GABAARs were concentrated to 100 μl using 100 kDa cut-off centrifugal filters.
# The purified α1β3 GABAAR (100 μl) was reduced with 5 mM tris(2-carboxyethyl)phosphine for 1 hr, alkylated with 5 mM N-ethylmaleimide (NEM) for 1 hr, and quenched with 5 mM dithiothreitol (DTT) for 15 min. These three steps were done at RT. Samples were then digested with 8 μg of trypsin for 7 days at 4°C to obtain maximal recovery of TMD peptides. The digestions were terminated by adding formic acid in a final concentration of 1%, followed directly by LC-MS analysis on an Orbitrap Elite mass spectrometer. 20 μl samples were injected into a home-packed PLRP-S (Agilent, Santa Clara, CA) column (10 cm ×75 μm, 300 Å), separated with a 145 min gradient from 10% to 90% acetonitrile, and introduced to the mass spectrometer at 800 nl/min with a nanospray source. MS acquisition was set as a MS1 Orbitrap scan (resolution of 60,000) followed by top 20 MS2 Orbitrap scans (resolution of 15,000) using data-dependent acquisition, and exclusion of singly charged precursors. Fragmentation was performed using high-energy dissociation with normalized energy of 35%. Analysis of data sets was performed using Xcalibur (Thermo Fisher Scientific) to manually search for TM1, TM2, TM3 or TM4 tryptic peptides with or without neurosteroid photolabeling modifications. Photolabeling efficiency was estimated by generating extracted chromatograms of unlabeled and labeled peptides, determining the area under the curve, and calculating the abundance of labeled peptide/(unlabeled + labeled peptide). Analysis of statistical significance comparing the photolabeling efficiency of KK200 and KK123 for α1β3 GABAAR was determined using one-way ANOVA with Bonferroni's multiple comparisons test and paired t-test, respectively (Prism 6, GraphPad Software, San Diego, CA). MS2 spectra of photolabeled TMD peptides were analyzed by manual assignment of fragment ions with and without photolabeling modification. Fragment ions were accepted based on the presence of a monoisotopic mass within 20 ppm mass accuracy. In addition to manual analysis, PEAKS (Bioinformatics Solutions Inc, Waterloo, ON, Canada) database searches were performed for data sets of photolabeled α1β3 GABAAR. […]
SMILES,Prevention of KK200 photolabeling of α1N408 in the α1 intrasubunit site (30 μM competitor),Prevention of KK200 photolabeling of β3G308 in the intersubunit site (30 μM competitor),"Inhibition of KK123 photolabeling at the α1 (α1Y415) and β3 (β3Y442) intrasubunit sites (30 μM competitor, 3 μM KK123)","Photolabeling efficiency of α1 subunit TM4 (Y415, α1 intrasubunit site)",Photolabeling efficiency of β3 subunit TM4 peptide (β3 intrasubunit site)
"CC(=O)[C@H]1CC[C@H]2[C@@H]3CC[C@H]4C[C@H](O)CC[C@]4(C)[C@H]3CC[C@]12C [3α5αP, allopregnanolone]",prevented,prevented,,,
"CC(=O)[C@H]1CC[C@H]2[C@@H]3CC[C@H]4C[C@@H](O)CC[C@]4(C)[C@H]3CC[C@]12C [3β5αP, epi-allopregnanolone]",prevented,does not bind to the intersubunit site,completely inhibited,,
C#CCCO[C@H]1CC[C@H]2[C@@H]3CC[C@H]4CC5(CC[C@]4(C)[C@H]3CC[C@]12C)N=N5 [KK148],prevented,prevented,,0.77%,0.13%
C#CCCO[C@@H]1CC[C@H]2[C@@H]3CC[C@H]4CC5(CC[C@]4(C)[C@H]3CC[C@]12C)N=N5 [KK150],prevented,prevented,,0.62%,0.19%
